In article PMC12523843, “Kuwanon A Targeted YWHAB in Hepatocellular Carcinoma Cells to Inhibit the Raf/MEK/ERK Signaling Pathway” (Cells, 2025):

Assays:
[1] = test system: YWHAB knockdown HCC cells; test: MTT IC50 in YWHAB knockdown HCC cells; type: cell-based, human; conditions: 48 h, vs scramble
Experimental: (§1) Cell viability was assessed using MTT experiments. Cells, together with KA, were seeded into 96-well plates at a density of 2000 cells per well with three replicates per condition. DMSO was used as a control. At designated time points, 20 μL of MTT (Sigma, St. Louis, MO, USA) solution was added to each well and incubated for 3 h. After removing the culture medium, 200 μL of DMSO was added to dissolve the formazan crystals. The absorbance was then measured using a microplate reader at a wavelength of 560 nm.
Short hairpin (sh) RNA targeting YWHAB was cloned into the pLKO.1-puro plasmid, with the sequences listed in Supplementary Table S1. Flag-tagged YWHAB, MYC-tagged YWHAB, and Flag-tagged Raf1 plasmids were purchased from Miaoling (Wuhan, China). Transfection was performed by introducing the specified plasmids into HEK293FT cells using Lipofectamine 2000 (Thermo, New York, NY, USA), following the manufacturer’s instructions. Viral supernatant or cells were collected two days post-transfection. For infection, HCC cells were treated with viral supernatant and polybrene (Sigma, Virginia Beach, VA, USA). After two rounds of infection, the cells were stably selected by using puromycin (Sigma, Virginia Beach, VA, USA).

[2] = target: T1, YWHAB (Homo sapiens, UniProt P31946); test: Epoxy-activated Sepharose 6B pull-down; type: binding; parameters: host or cells: HEK 293T; conditions: KA immobilized on Sepharose 6B, HEK 293T overexpressing YWHAB
T1 sequence (P31946 1-246): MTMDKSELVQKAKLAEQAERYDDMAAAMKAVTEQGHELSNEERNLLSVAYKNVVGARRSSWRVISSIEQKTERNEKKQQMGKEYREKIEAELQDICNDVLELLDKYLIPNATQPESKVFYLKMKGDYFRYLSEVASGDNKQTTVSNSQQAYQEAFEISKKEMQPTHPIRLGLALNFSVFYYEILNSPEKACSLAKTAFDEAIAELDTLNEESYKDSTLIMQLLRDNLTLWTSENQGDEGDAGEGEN
Experimental: Epoxy-activated Sepharose 6B (Cytia, Washington, DC, USA) affinity media was used to bind KA molecules following the media’s absorbency swelling. The Sepharose 6B media was co-incubated with KA or DMSO and gently agitated overnight at room temperature. The product was then thoroughly washed through at least three cycles. Any remaining active groups were blocked using 1 M ethanolamine, incubated for 4 h at 37 °C. The 6B media, now bound with KA or DMSO, were further incubated with the cell lysate sample overnight, with gentle agitation at 4 °C. The media was washed again through a minimum of three cycles. A suitable amount of loading buffer was added, and the samples were heated in a 100 °C water bath for 15 min. The resulting supernatant was then ready for use in SDS-PAGE electrophoresis.

[3] = test system: HCC cells (MHCC97 H and SMMC 7721); test: EdU staining proliferation assay; type: cell-based, human
Experimental: EdU staining was employed to assess cell proliferation following the manufacturer’s guidelines (Beyotime, Shanghai, China). A total of 2 × 10^4 cells, together with KA or DMSO, were seeded into 24-well plates and cultured for 48 h. Subsequently, the cells were incubated with […] EDU for 2 h, followed by fixation with 4% PFA for 15 min, permeabilization with 0.3% Triton X-100 for 10 min, and reaction with Click reaction cocktails for 30 min. Finally, the nuclei were stained with DAPI for 30 min at room temperature before microscopic examination.

[4] = test system: phosphorylation of MEK1/2 and ERK1/2; test: Western blot of MAPK pathway; type: cell-based, human
Experimental: (§2) Cells were harvested using a cell scrape and washed three times with PBS buffer, then lysed on ice in RIPA lysis buffer (Beyotime, Shanghai, China). Protein concentration was determined using a BCA protein assay kit (Beyotime, Shanghai, China). Subsequently, 60 µg of protein was mixed with 5× loading buffer and heated in a 100 °C water bath for 15 min. The samples were subjected to SDS-PAGE electrophoresis, followed by transfer onto a PVDF membrane (Millipore, Darmstadt, Germany). The membrane was blocked with 5% BSA for 2 h at room temperature and incubated sequentially with primary and HRP-conjugated secondary antibodies. Finally, signal detection was performed using an ECL detection system (Clinx, Shanghai, China).

[5] = test system: SMMC 7721 cells; test: MTT IC50 determination in SMMC 7721; type: cell-based; conditions: Homo sapiens, gradient concentrations, 48 h
Experimental: as §1

[6] = test system: CDK and cyclin proteins; test: Western blot of CDK and cyclin proteins; type: cell-based, human; conditions: 48 h, MHCC97 H and SMMC 7721
Experimental: as §2

[7] = YWHAB-overexpressing HCC cells, KA 15 μM, 48 h

SMILES: CC(C)=CCc1c(-c2ccc(O)c3c2OC(C)(C)C=C3)oc2cc(O)cc(O)c2c1=O [KA, Kuwanon A]
- IC50 of KA after knockdown of YWHAB [1]: significant increase in the IC50
- interaction with YWHAB (pull-down) [2]: direct interaction
- proportion of proliferating HCC cells (EdU) ([3]; 48 h treatment): significant decrease in the proportion of proliferating HCC cells
- proliferation inhibition by KA under YWHAB overexpression (EdU) [3, 7]: partly reversed the proliferation inhibition
- KA's effects on MEK1/2 and ERK1/2 phosphorylation under YWHAB overexpression [4, 7]: partly abrogated
- phosphorylation levels of MEK1/2 and ERK1/2 (Western blot) ([4]; indicated concentrations 48 h, 15 μM for 24 or 48 h): significant downregulation of the phosphorylation levels of MEK1/2 and ERK1/2
- IC50 [5]: 9.85 µM
- cell cycle-related proteins (Western blot) [6]: downregulation of corresponding cell cycle-related proteins
